Results published in US20250137050A1, “METHODS AND COMPOSITIONS FOR DETERMINING RISK OF AUTISM SPECTRUM DISORDERS” (The Regents of the University of California, priority 2021, published 2025).
“Also recorded” adds a separate entry of the source.

How the values were obtained:
Type in all cases: cell-based, human
LUHMES cells [1] = assay: Reactive oxygen species (ROS-Glo H2O2 assay) in LUHMES cells after hypoxia mimetic; settings: differentiated LUHMES neurons compared with undifferentiated; 100 nM CoCl2 for 24 hours
Description: (§1) LUHMES cells (ATCC, Manassas, VA, USA, CRL-2927) were seeded on fibronectin coated plates (Thermo Fisher Scientific, Waltham, MA, USA, CWP001, 354402). Undifferentiated cells were maintained in proliferation medium: Advanced DMEM/F12 (Invitrogen, Carlsbad, CA, USA), supplemented with N2 supplement (Invitrogen, Carlsbad, CA, USA), Penicillin-streptomycin-glutamine (Thermo Fisher Scientific, Waltham, MA, USA), and 40 ng/ml recombinant bFGF (Invitrogen, Carlsbad, CA, USA). To generate differentiated LUHMES, cells were switched to differentiation media for five days. […] For RNA quantification, cells were maintained in 6-well plates. […]
(§2) All cells were maintained at 37° C. containing […] and 5% CO2. […] Cell numbers were measured using disposable countess chamber slide on Countess II FL automated cell counter (Thermo Fisher Scientific, Waltham, MA, USA) under the default steps with mixing 10 μl of samples with 10 μl of trypan blue. CellTiter Blue reagent was used for measured cell viability using […] based on manufacturer instruction (Promega, Madison, WI, USA). H2O2 production represented relative reactive oxygen species (ROS) level was measured with the ROS-Glo H2O2 assay system using 50 nM with the default setting with level measured by luminometer (Promega, Madison, WI, USA).

LUHMES cells [2] = assay: Cell viability (CellTiter Blue) of LUHMES cells after hypoxia mimetic; settings: differentiated LUHMES neurons compared with undifferentiated; CoCl2 for 24 hours
Description: as §1, §2

NHIP = NHIP transcript levels by RT-qPCR in LUHMES cells after hypoxia mimetic; settings: differentiated LUHMES cells
Description: as §1, with “days. Differentiation media: Advanced DMEM/F12, supplemented with N2 supplement, Penicillin-streptomycin-glutamine, 1 mM dbcAMP (MilliporeSigma, Burlington, MA, USA), 1 μg/ml tetracycline (Neta Scientific, Hainesport, NJ, USA), and 2 ng/ml recombinant human GDNF (Thermo Fisher Scientific, Waltham, MA, USA).” for “days.”
Total RNA was isolated from HEK293T cells transiently transfected with NHIP-eGFP or negative control NEG-eGFP using AllPrep DNA/RNA/Protein mini kit (Qiagen, Hilden, Germany). […] Fold changes of transcript levels were measured using the Fluidigm Real-Time PCR Analysis software calculated fold change of gene expression as the delta delta CT normalized to GAPDH (Fluidigm, San Francisco, CA, USA).

[Cl][Co][Cl] [CoCl2, cobalt chloride]
reactive oxygen species (ROS) levels (LUHMES cells [1]): increase | cell viability (LUHMES cells [2]): significant decrease | NHIP transcript levels (NHIP; 100 nM CoCl2 for 24 hours vs mock, normalized to GAPDH): significantly increased | NHIP transcript levels after removal of hypoxia mimetic (NHIP; 48 hours of recovery (Day 8) after 24 hours of CoCl2): returned to untreated levels; also recorded: returned to mock control baseline levels
